ChEMBL document CHEMBL1629586, “Preparation and stability of voriconazole eye drop solution” (Antimicrob Agents Chemother, 2009)

Assay: Chemical stability of the compound at pH 7 after 30 days
Format: physicochemical
Conditions: buffer, pH 7, 720 h

In the case of C[C@@H](c1ncncc1F)[C@](O)(Cn1cncn1)c1ccc(F)cc1F [VORICONAZOLE], the Stability is reported as “Stable”.
